Laboratory results reported in patent US12258360B2, “Compositions and methods for treatment of anticancer-drug resistant cancers” (THE GEORGE WASHINGTON UNIVERSITY, priority 2020, dated 2025).
pIC50: −log10 of the molar value.

Experiments:
IGROV1 cells = assay: flow cytometry (FACS) of propidium-iodide stained IGROV1 cells; format: cell-based, human; settings: 1 μM
IGROV1 CR cells = assay: clonogenic assay, combination with cisplatin; format: cell-based, human
Description: Clonogenic survival assays were also performed. In brief, cells were seeded in 6-well dishes at a density of 500 cells per dish then treated with the cisplatin at the indicated concentrations (See FIGS. 23 and 24). Cells were then kept in the incubator for 10-14 days to allow colony formation. Colonies were visualized by crystal violet staining. Colonies with >50 cells were counted.

And-1 = target: T1, And-1 (Homo sapiens, UniProt O75717); assay: immunoblot analysis of And-1 expression in IGROV1 cells; format: cell-based; set-up: endogenous in cells; host or cells: IGROV1 CR
T1 sequence (O75717 1-1129): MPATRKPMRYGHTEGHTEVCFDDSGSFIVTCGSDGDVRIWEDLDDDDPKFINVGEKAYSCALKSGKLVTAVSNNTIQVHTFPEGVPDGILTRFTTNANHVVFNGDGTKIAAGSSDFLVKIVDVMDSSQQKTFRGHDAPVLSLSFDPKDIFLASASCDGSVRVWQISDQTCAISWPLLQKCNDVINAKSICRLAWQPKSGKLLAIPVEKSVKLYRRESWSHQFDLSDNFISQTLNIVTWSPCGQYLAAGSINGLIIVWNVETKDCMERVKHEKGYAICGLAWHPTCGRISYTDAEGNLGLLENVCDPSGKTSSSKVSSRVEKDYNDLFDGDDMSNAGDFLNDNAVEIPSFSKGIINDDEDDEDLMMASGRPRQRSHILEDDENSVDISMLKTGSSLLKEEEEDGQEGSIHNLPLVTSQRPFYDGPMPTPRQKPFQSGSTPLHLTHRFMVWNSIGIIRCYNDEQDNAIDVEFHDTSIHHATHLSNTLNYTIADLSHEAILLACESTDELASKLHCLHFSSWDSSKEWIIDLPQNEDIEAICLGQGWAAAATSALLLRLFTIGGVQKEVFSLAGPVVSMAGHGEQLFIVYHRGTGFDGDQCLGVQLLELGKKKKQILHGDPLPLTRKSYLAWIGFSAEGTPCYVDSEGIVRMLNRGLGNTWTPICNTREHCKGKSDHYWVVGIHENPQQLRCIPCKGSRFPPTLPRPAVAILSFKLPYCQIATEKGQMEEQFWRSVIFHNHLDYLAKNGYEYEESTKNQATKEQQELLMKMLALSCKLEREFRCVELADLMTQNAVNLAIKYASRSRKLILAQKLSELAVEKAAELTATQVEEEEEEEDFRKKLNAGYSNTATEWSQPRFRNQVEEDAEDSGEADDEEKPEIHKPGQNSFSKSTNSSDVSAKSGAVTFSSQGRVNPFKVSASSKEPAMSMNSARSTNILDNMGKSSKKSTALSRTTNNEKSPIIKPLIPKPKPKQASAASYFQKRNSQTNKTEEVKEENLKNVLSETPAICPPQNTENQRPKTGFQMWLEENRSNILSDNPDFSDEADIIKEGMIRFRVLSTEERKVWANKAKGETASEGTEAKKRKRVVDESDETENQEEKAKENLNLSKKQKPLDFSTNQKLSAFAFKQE
Description: The high IC50 of resveratrol compromises its potential clinical application; therefore, resveratrol was used as a lead compound to screen 12 analogs of resveratrol for potent compounds that can inhibit And-1 (FIG. 14). […] To perform immunoblot analyses, cells were first treated with increasing concentrations of the 12 analogs. After treatment, the cells were harvested and then lysed with RIPA buffer protease inhibitor and phosphatase inhibitor cocktail. Protein concentration was determined by the BCA protein assay. Equal amounts of whole cell lysates were separated on sodium dodecyl sulfate polyacrylamide gel electrophoresis (SDS-PAGE) and transferred onto nitrocellulose membranes. Membranes were then incubated in blocking solution (5% non-fat milk in 20 mM TRIS-HCl, 150 mM NaCl, 0.1% Tween-20) (TBST), followed by incubation with the indicated antibodies at 4° C. overnight. The membranes were then washed in TBST and incubated with HRP-conjugated secondary antibodies for 1 hour at room temperature (21° C.±2° C.). Antibody detection was performed with an enhanced chemiluminescence reaction.

`OB1OCc2cc(/C=C/c3ccc(Cl)c(Cl)c3)ccc21` [CH3] was tested, and the “percentage of cells in the S-phase” value (IGROV1 cells) was “reduced the percentage of cells in the S-phase”, the “synergy with cisplatin on clonogenic capacity” value (IGROV1 CR cells) was “synergy with cisplatin to reduce clonogenic capacity” and the And-1 protein levels (And-1; 5 μM for 48 hours, without MG132) was “reduced And-1 protein levels”. The pIC50 (And-1; immunoblot, read-out: IC50 for inhibition of And-1 expression) was 5.68.
